What was measured:
[1] = system: HEK293 cells; test: NGF-FITC binding by flow cytometry, non-transfected HEK293 cells
Description: (§1) Background fluorescence of HEK293 cells was non-transfected cells (±c29 or scrambled peptide treatment) treated with 26 nM NGF-FITC. For PC12 cells, the control population was cells that had not been treated with NGF-FITC. Analysis of real-time NGF-FITC receptor binding experiments was performed on 550,000-600,000 cells at 4° C. in serum free NB medium and binding kinetics were calculated from raw data files compressed to 50,000 binding events using FlowJo and MatLab Software. Data was plotted with the use of GraphPad Prism.
Only NGF-FITC preparations that promoted equivalent neurite outgrowth of PC12 cells to that of unlabelled NGF were used in binding experiments. To investigate NGF binding, PC12 or transfected HEK293 cells were serum starved for 4 hours, harvested, washed with Dulbecco's Modified Eagle Medium (DMEM), and counted. When used, c29 or scrambled peptide were added to cultures for the third hour of the serum starvation procedure. […] For binding competition assays, following 1 hour in NGF-FITC, cells were washed with ice-cold PBS containing 0.1% normal bovine serum and incubated on ice with unlabeled NGF at concentrations ranging from 100 pM to 10 μM for 30 minutes, then washed twice in PBS before being analysed on a BD Flow Cytometer FACS Scan (Becton-Dickinson).

[2] = system: PC12 cells; test: NGF-FITC binding by flow cytometry, PC12 cells; details: NGF-FITC, c.f. PC12
Description: The NGF was conjugated to FITC by standard methods and detailed flow cytometry acquisition and analysis. For NGF-FITC conjugation 400 μg βNGF in 200 μl pH 8.5 NaHCO3 buffer was mixed with 5-10 μl of 10 mg/ml FITC in 100 μl DMSO for 10 hours at 4° C. on an orbital shaker set to 100 rpm. The excess FITC was removed by dialysis against 3 changes of 5 L of 10 mM Tris, 150 mM NaCl, 0.2% acetic acid, pH 8.2 for 24 hours at 4° C. Conjugate F/P characterization was determined by measuring absorbance at 280 nm and 495 nm according to manufacturer's instructions. Biological activity of the NGF-FITC conjugate was tested by performing PC12 cell neurite outgrowth assays unlabelled NGF, and comparing the levels of neuritogenesis. NGF-FITC conjugates were used within 4 weeks of synthesis.
For the flow cytometry NGF binding assays, fluorescence cell parameters of at least 20,000 events for PC12 cells and 100,000 events for HEK293 cells were acquired by flow cytometry list mode and measurements were performed on a single cell basis (with compensation for double event counting). Dead cells and debris were gated out of the analysis on the basis of forward scatter fluorescence, and mean, median and maximal fluorescence values of the gated cell populations were analysed using FACS Diva Software (Becton-Dickinson Biosciences) and FACS Express Software (Becton-Dickinson Biosciences).
as §1
Only NGF-FITC preparations that promoted equivalent neurite outgrowth of PC12 cells to that of unlabelled NGF were used in binding experiments. To investigate NGF binding, PC12 or transfected HEK293 cells were serum starved for 4 hours, harvested, washed with Dulbecco's Modified Eagle Medium (DMEM), and counted. When used, c29 or scrambled peptide were added to cultures for the third hour of the serum starvation procedure. 1×10^7 cells/ml suspended in 500 μl of serum-free DMEM were incubated with 26 nM NGF-FITC on ice for 60 minutes before analysis. For binding competition assays, following 1 hour in NGF-FITC, cells were washed with ice-cold PBS containing 0.1% normal bovine serum and incubated on ice with unlabeled NGF at concentrations ranging from 100 pM to 10 μM for 30 minutes, then washed twice in PBS before being analysed on a BD Flow Cytometer FACS Scan (Becton-Dickinson).
First, to determine the concentration of c29 required to modulate NGF binding, c29 levels were titrated with a fixed concentration of NGF-FITC.

[3] = system: primary E13 motor neurons; test: Primary motor neuron survival and growth factor withdrawal; format: cell-based, mouse; details: 1 ng/ml BDNF plus NGF
Description: Briefly, pregnant mothers were sacrificed by cervical dislocation and the uterus removed by Caesarean section and placed in Neurobasal medium. Lumbar spinal cords were dissected from E13 embryos on ice. Batches of 2 or 3 spinal cords were incubated in 1 mL 0.05% trypsin-ETDA for 10 minutes at 37° C. in 15 mL tubes. To prevent further trypsinisation, 0.14 mg/mL trypsin inhibitor solution was added and the tissue centrifuged at 100×g for 7 minutes, without acceleration or deceleration. The supernatant was removed and the spinal cord tissue was resuspended in 1 mL of Neurobasal Medium (NB). In order to obtain a single cell suspension, each batch of 2-3 spinal cords was agitated manually for 2 minutes. The suspension was allowed to settle and the supernatant collected after being filtered through a 100 μm sieve. The remaining tissue was further triturated ˜8 times through a P200 pipette and filtered through a 100 μm sieve. The combined supernatants were then separated by centrifugation on a 5 ml cushion of 9% (vol/vol) OptiPrep® gradient in NB containing 2% B27 supplement for 45 min at 850×g, without acceleration or deceleration. To prevent toxicity following Optiprep® separation, the layer containing MNs was harvested into 10 mL of NB containing 10% HS, and the cell suspension was centrifuged at 900×g for 7 minutes at 24° C., without acceleration or deceleration. The supernatant was removed and the cell pellet was resuspended in 1 mL of NB medium.
The number of viable motor neurons was counted on a haemocytometer using 0.08% trypan blue and neurons plated in 4-well culture dishes at a density of 3,000 cells per well in 100 μL NB containing 10% HS. […] Primary motor neurons were maintained at 37° C. in a humidified atmosphere with 5% CO2 and culture medium was replaced at day 1 and 3. Phase contrast images of motor neurons were taken using an Olympus (6IX81) microscope after motor neurons were grown in vitro for up to 7 days.
To assess the effects of c29 peptide on motor neuronal survival in limiting growth factor concentrations, isolated spinal motor neurons were plated and treated with 0.01, 0.1 or 1.0 ng/ml of BDNF in the presence of 1 μm PTD4-linked c29 or scrambled peptide, and cultured for 5 days with the addition of fresh BDNF and peptide treatments on day 2 and 4. For growth factor-withdrawal assays, following initial plating in 1 ng/ml of BDNF, CNTF or GDNF, cultures were washed four times with serum-free Neurobasal (NB) medium, after which the medium was replaced with medium containing 1-0.01 ng/ml of BDNF, CNTF or GDNF and 1 μM PTD4-linked c29 or scrambled peptides, as indicated. For assays investigating the effect of c29 on NGF-mediated motor neuron death, cultures were grown in 1 ng/ml BDNF, CNTF or GDNF for 1 day, before being treated with 100 ng/ml 2.5S NGF in and 1 μM PTD4-linked c29 or scrambled peptide, as indicated. Motor neurons were counted on day 1, and to assess the effects of various treatments days 3 and 5 (4 separate 10×10 grid fields of each well per experiment).

[4] = system: pErk1/2 and pAkt; test: Western blot of pErk1/2 and pAkt in PC12 cell lysates; format: cell-based; details: absence of NGF, 24 hours
Description: In biochemical experiments, PC12 and HEK293 cells were lysed for 20 minutes on ice in lysis buffer as described by (Ceni et al., 2010). Briefly, the lysis buffer contained 10 mM Tris-HCl, 150 mM NaCl, 2 mM EDTA, 1% (v/v) NP-40, 1% (v/v) TX-100, 10% Glycerol, 1 mM PMSF, 1 mM Sodium Orthovanadate, 1 μM BB94, 1% (v/v) Roche protease inhibitor cocktail and pH 8.0 (Ceni et al., 2010).
(§2) Immunoprecipitation was performed by the addition of 75 μl (1:2) protein-G sepharose: PBS and incubation end-over-end for 16 hours at 4° C. The immunoprecipitate was washed 4 times with 1 ml of PBS then eluted in 60 μl 2×LDS sample buffer. For immunoblotting, samples were boiled for 5 minutes, separated by SDS-PAGE and transferred onto nitrocellulose membranes, then western blotted using standard protocols (see Example 1 for antibodies used).
The observed functional effects on neurite outgrowth and survival were next correlated with enhanced activation of signal transduction pathways that mediate the trophic effects of TrkA. Lysates of cells treated for 24 hours with NGF alone or in combination with c29 or scrambled peptide were immunoblotted for pErk1/2 (neurite outgrowth), and the serine/threonine protein kinase Akt (survival). […] Total levels of Erk1/2 or Akt were unaffected by any treatment (FIG. 6 A, B).

[5] = system: TrkA and p75^NTR; test: Surface biotinylation of receptors in PC12 cells; format: cell-based; details: 1 μM peptide, with or without NGF
Description: FIG. 10: The juxtamembrane domain of p75^NTR increases the association of NGF to cells expressing TrkA. (A and B) Dose response graphs of the proportion (%) of PC12 cells with fluorescence intensity above background following treatment with 26 […] NGFFITC, a FITC-conjugated antibody to the extracellular domain of p75^NTR (A), or an antibody to TrkA (detected using an anti-rabbit Alexa 594 secondary) (B), after pretreatment with increasing concentrations of […] peptide. (n=3 experiments per data point; mean±SEM *p<0.05, **p<0.01) (C) Representative western blots (WB) of TrkA and p75^NTR present in streptavidin precipitates (surface biotin), or lysate flow through of PC12 cells that had been treated for 1 hour with NGF and/or c29 and scrambled (SC) peptide, prior to the surface proteins being labelled with biotin for 90 minutes on ice.

[6] = system: p75^FL; test: Production of endogenous p75^CTF or p75^ICD fragments in p75^FL-transfected HEK293 cells; format: cell-based; details: vs untreated cells, data not shown
[7] = system: PC12 cells; test: PC12 cell neurite outgrowth in response to NGF; format: cell-based; details: for neurite growth: fragments incubated with PC12 cells and NGF, FIG. 16
Description: (§3) To assess the effect of p75^NTR constructs (FIG. 2) or c29 peptide on TrkA-mediated neuritogenesis, transfected PC12 cells were grown in the presence of 100 ng/ml NGF for 3 days, with fresh medium and NGF treatments added on day 2. Cells were then imaged live on an Olympus (IX81) microscope fitted with a CO2 atmospheric chamber, using analySIS software. Four random images of 80-100 cells were taken for each treatment condition and images were determined by measuring polygon neurite length of all cells in each image. Data analysis was performed using Graphpad PRISM.
Once PC12 cells are fully differentiated, they become dependent on NGF for survival (Greene, 1978), but can survive if grown in the presence of lower concentrations of NGF (Greene and Tischler, 1976). To determine if c29 could potentiate TrkA-mediated signals, PC12 cells were cultured in the presence of NGF concentrations ranging from 1-100 ng/ml for 5 days, following serum starvation and pre-incubation with c29, scrambled control peptide or no peptide (FIG. 5A). […] Peptides (1 μM) were added to the cultures every 48 hours at the time of NGF addition and medium exchange.

[8] = system: PC12 cells; test: PC12 cell neurite outgrowth in response to EGF; format: cell-based; details: EGF plus secretase inhibitor, 5 days
Description: as §3
To determine whether the effect of the c29 peptide on enhancement of neurite outgrowth was NGF and TrkA specific, we repeated the experiment using EGF to stimulate differentiation.

[9] = system: PC12 cells; test: PC12 cell neurite outgrowth in response to NGF; format: cell-based; details: NGF plus secretase inhibitor over 5 days
[10] = system: TrkA; test: Biotinylated peptide pull down of TrkA; format: binding; details: TrkA pull downs, FIG. 15F
Description: For peptide pull down assays, the biotinylated c29 or LC1 control peptides were incubated with protein A-sepharose beads or Dynabeads MyOne Streptavidin T1 (Invitrogen) overnight at 4° C. Cell lysates were then added to the peptide-protein A-sepharose complex or Dynabeads MyOne Streptavidin T1 and incubated for 3 hours at 4° C. Peptide-receptor complexes were washed extensively with RIPA lysis buffer and eluted by boiling in Laemmli sample buffer. For p75^NTR construct immunoprecipitations, HEK293 cells were treated with NGF at 50 ng/ml for 10 minutes 48 hours after transfection with 1 μg DNA per well. Cells were immediately harvested in ice-cold phosphate buffered saline (PBS) and washed twice, then lysed in 1 ml of lysis buffer. Cell lysates were pre-cleared in 75 μl (1:2) protein-G sepharose: PBS by rotation end-over-end for 2 hours at 4′C. Lysates were then incubated with 3-5 μg antibody, either mouse-anti-YFP/GFP (Roche) or rabbit-anti-human p75^NTR intracellular domain antibody (Promega), and rotated end-over-end for 2 hours at 4° C.
as §2
The c29 peptide was labelled with biotin and attached to a sepharose bead column. Lysates from cells was passed over the column followed by several wash steps. The proteins that bound to the c29 peptide (proteins that are pulled down) were eluted from the column with SDS buffer and separated in size by SDS-PAGE electrophoresis. The gel was Western blotted and the membrane probed with antibodies to proteins of interest.

Molecule: SKGQVCRNQPGQNKPEPANKSWKETPLRN [SC, randomly scrambled version of c29, reference compound]
- fluorescence of nontransfected cells incubated with peptide and NGF-FITC [1]: only background levels of fluorescence
- % of cell population with FITC above background [2]: 100.3 ± 5.1%
- Maximal fluorescence per cell of the population [2]: 100.4 ± 9.6%
- Mean fluorescence per FITC-positive cell [2]: 95.3 ± 7.4%
- Median population fluorescence [2]: 97.0 ± 3.8%
- NGF-induced cell death of motor neurons [3]: no effect
- pAkt signalling [4]: no effect
- pErk1/2 signalling [4]: no effect
- surface or total receptor levels of TrkA and p75^NTR [5]: no significant difference
- rate of production of endogenous p75^CTF or p75^ICD fragments [6]: did not differ significantly
- median neurite outgrowth ([7]; 100 ng/ml NGF, day 5, peptide 1 μM, vs untreated cultures): no difference

Molecule: C[C@H](NC(=O)Cc1cc(F)cc(F)c1)C(=O)N[C@H]1N=C(c2ccccc2)c2ccccc2N(C)C1=O [compound E, (S,S)-2-[2-(3,5-Difluorophenyl)-acetylamino]-N-(1-methy-2-oxo-5-phenyl-2,3-dihydro-1H-benzo[e][1,4]diazepin-3-yl)-propionamide]
- PC12 cell differentiation induced by EGF [8]: neither the α- nor the γ-secretase inhibitor had any significant effect
- neurite length [9]: 20 μm

Molecule: SRPVNQTPPPEGEKL (c15-29 - Fragment of p75ICD) [(15-29)]
- TrkA binding of biotinylated fragments [10]: clearly bind TrkA
- neurite growth [7]: stimulated neurite growth

Molecule: ARWNSC [c1-6K1A]
- neurite growth [7]: stimulated neurite growth

Molecule: CC(C)C[C@H](CC(=O)NO)C(=O)N[C@H](C(=O)N[C@@H](C)C(=O)NCCN)C(C)(C)C [TAPI-2, N—(R)-(2-(Hydroxyaminocarbonyl)Methyl)-4-Methylpentanoyl-L-t-Butyl-Glycine-L-Alanine 2-Aminoethyl Amide]
- PC12 cell differentiation induced by EGF [8]: neither the α- nor the γ-secretase inhibitor had any significant effect
- neurite length [9]: 20 μm

Molecule: KRWASC [c1-6N4A]
- neurite growth [7]: stimulated neurite growth

Molecule: (22-29): truncated peptide fragment of c29, residues 22-29 (PPPEGEKL)
- TrkA binding of biotinylated fragments [10]: clearly bind TrkA
- neurite growth [7]: stimulated neurite growth

Molecule: KRWNSC (c1-6 - Fragment of p75ICD) [(1-6)]
- TrkA binding of biotinylated fragments [10]: clearly bind TrkA
- neurite growth [7]: stimulated neurite growth

Molecule: KRWASA [c1-6C6A]
- neurite growth [7]: stimulated neurite growth

Molecule: KRWNSCKQNKQGAN (c1-14 - Fragment of p75ICD) [(1-14)]
- TrkA binding of biotinylated fragments [10]: clearly bind TrkA
- neurite growth [7]: stimulated neurite growth

Source: patent US20150344535A1, “NEUROTROPHIN-TYROSINE KINASE RECEPTOR SIGNALING” (THE UNIVERSITY OF QUEENSLAND, priority 2012, published 2015)
